According to article PMC11403612, “Preparation and Preclinical Characterization of a Simple Ester for Dual Exogenous Supply of Lactate and Beta-hydroxybutyrate” (Journal of Agricultural and Food Chemistry, 2024):

Test: Short-term pharmacokinetics of LaKe in rats (BHB and lactate levels)
Type: in vivo, Sprague–Dawley rats
Settings: 4.5 g/kg oral
Method: Male Sprague–Dawley rats (300–350g, Taconic, Ry, Denmark) were kept for acclimatization at a constant temperature of 23 °C with a 12 h light-dark cycle and with unlimited access to food and water. All animal handling was in accordance with national guidelines in Denmark and the guidelines from the Directive 2010/63/EU of the European Parliament on the protection of animals used for scientific purposes, and all experiments conformed to Danish Law (Act. No. 1306 of 23/11/2007). The experimental protocol was approved by the Danish Animal Expectorate (2018-15-0201-01475).
The rats were randomly selected to receive either LaKe (n = 8) or placebo (n = 8).
Rats were anesthetized in an induction chamber with 8% Sevoflurane (Sevorane, AbbVIE A/S, Copenhagen, Denmark) mixed with oxygen saturated atmospheric air (flow: 2.0 L/min). Upon achieved anesthesia, the rats were intubated and connected to a mechanical ventilator (Ugo Basile 7025 rodent ventilator, Comerio, Varese, Italy) with an adjusted flow of 1.0L/min with 3.5% Sevoflurane. Body temperature was kept at a constant of 37 ± 1 °C with a temperature probe (UNO, Zevenaar, Holland). A PTFE-coated flexible orogastric tube (Fuchigami, Japan) was placed, and the rat was left for stabilization for 15 min. […]
Short term pharmacokinetics of LaKe in rats – Detailed protocols for LC-MS/MS and FFA analyses BHB quantification by LC-MS/MS […]

For `CC(O)CCOC(=O)C(C)O` (centres unmarked) [LaKe, 3-hydroxybutyl 2-hydroxypropanoate], the “BHB levels at 120 min” value was “remained elevated” and the “lactate levels at 120 min” value was “largely back at the baseline level”.
